“Also recorded” adds a separate entry of the source. One block for each compound: values may come before it.
Columns and labels:
FRB = conditions: read-out: KD for FRB without FKBP12; cited from earlier work
FKBP12 and FRB = FKBP12 and FRB (Homo sapiens, UniProt P42345+P62942); assay: Rapamycin-sensitive MG-PACE circuit, luciferase activation; format: cell-based, E. coli; conditions: without PMBN
Excerpt: (§1) Chemically competent S2060 cells were co-transformed with accessory and complementary plasmids (Table S1).

DDB1•CRBN = target: T1, DDB1•CRBN (Homo sapiens, UniProt Q96SW2); assay: Competitive fluorescence anisotropy (polarization) vs thalidomide-Cy5; format: binding
T1 construct: made in house
Description: Competitive fluorescence polarization experiments were performed according to previously reported methods ([65]). All experiments were performed in 25 mM HEPES, […], 1 mM TCEP, pH 7.4. A pre-complexed sample was prepared by incubating DDB1-CRBN (400 nM) with thalidomide–Cy5 conjugate (fig. S2A) (80 nM) at RT for 30 minutes with gentle shaking (220 rpm). […] Polarization values were measured on an Infinite M1000 Pro microplate reader (Tecan) following 1 hour of incubation at RT with gentle shaking. A total of three independent measurements were acquired and averaged per biological sample to generate the values shown in figure S2C. All mP values were normalized between 0 and 100 using the formula NormalizedmP=[(x−minimum)/[…]]∗100 , where ‘‘x’’ is the mP value of the sample and ‘‘minimum’’ and ‘‘maximum’’ are the minimum and maximum mP values, respectively, across all samples. KD values were estimated from computed Ki-values as previously described ([65]).

degron-tagged eGFP = assay: Degron-tagged eGFP degradation by flow cytometry in HEK293T cells; format: cell-based, human
[1] = target: full-length CRBN (MG-PACE circuit, SD36) (Homo sapiens, UniProt Q96SW2); assay: Two-hybrid luciferase transcriptional activation in PMBN-permeabilized E. coli by compound-induced ternary complex of RR69–human full-length CRBN with ω–degron, about 1 h at 37 °C, four-parameter fit.; format: cell-based, E. coli S2060; conditions: n = 3
Excerpt: (§2) To evolve ZFs that engage PT-179-bound CRBN, we constructed an MG-PACE circuit using the CRBN•IMiD•ZF molecular glue complex. […] We translationally fused CRBN to the DNA-binding protein RR69 and fused SD0 to the RNAP ω-subunit, then measured transcriptional activation by luminescence (Fig. 2A).
(§3) Figure 2. […] (A) Full-length CRBN MG-PACE circuit. (B) CRBNCTD MG-PACE circuit. […] Values and error bars in (C), (E), and (H) represent the mean and standard deviation of three replicates, each normalized to a control treatment with DMSO only. Dashed vertical lines in (D), (F), and (G) represent neutral drift passages.
as §1

[2] = target: full-length CRBN (MG-PACE circuit, SD31) (Homo sapiens, UniProt Q96SW2); assay: as above; format: cell-based, E. coli S2060; conditions: n = 3
Excerpt: as §2, §3, §1

[3] = target: T2, mmCRBN (MG-PACE circuit, SD55) (Mus musculus, UniProt Q8C7D2); assay: Two-hybrid luciferase transcriptional activation in PMBN-permeabilized E. coli by compound-induced ternary complex of mouse CRBN with evolved degron, about 1 h at 37 °C, four-parameter fit.; format: cell-based, E. coli S2060; conditions: n = 3
T2 construct: gene Crbn; mouse cereblon in mmCRBN MG-PACE circuit, partner SD55 (evolved ZF degron), in E. coli
Excerpt: (§4) Compared to human CRBN, mouse cereblon (mmCRBN) contains a V388I mutation that prevents IMiD-induced recruitment of ZF neosubstrates ([8]). The development of a potent and compact degron that is compatible with mmCRBN would facilitate studies that modulate target protein function in mouse systems. We hypothesized that MG-PACE could evolve degrons that overcome this difference in mmCRBN and respond to PT-179 in mouse cells. We constructed a mmCRBN MG-PACE circuit (Fig. 5A) and performed a total of 205 hours of PACE seeded with SD36-encoding phage (Fig. 5B).
(§5) Figure 5. MG-PACE evolves degrons that engage PT-179-bound mouse CRBN. (A) The mmCRBN MG-PACE circuit. Stringency is increased by expression of a competing ZF degron fused to maltose binding protein (MBP). (B) PACE in the mmCRBN MG-PACE circuit. (C) Mutations in evolved PT-179•mmCRBN-binding degrons. (D) PT-179-induced mmCRBN circuit activation (1 hr) by SD0 and evolved variants. […]
(§6) Chemically competent S2060 cells were co-transformed with accessory and complementary plasmids (Table S1). […] 96-well plates were then incubated in an Infinite M1000 Pro microplate reader (Tecan) at 37 °C with continuous shaking for ~1 hour prior to reading A600 nm and luminescence values. Raw luminescence values were then divided by the corresponding A600 nm values to normalize to cell density.

[4] = target: T3, mmCRBN (MG-PACE circuit, SD56) (Mus musculus, UniProt Q8C7D2); assay: as above; format: cell-based, E. coli S2060; conditions: n = 3
T3 construct: gene Crbn; mouse cereblon in mmCRBN MG-PACE circuit, partner SD56 (evolved ZF degron), in E. coli
Excerpt: as §4, §5, §6

[5] = target: full-length CRBN (MG-PACE circuit, SD35) (Homo sapiens, UniProt Q96SW2); assay: Two-hybrid luciferase transcriptional activation in PMBN-permeabilized E. coli by compound-induced ternary complex of RR69–human full-length CRBN with ω–degron, about 1 h at 37 °C, four-parameter fit.; format: cell-based, E. coli S2060; conditions: n = 3

SMILES: CO[C@H]1C[C@@H]2CC[C@@H](C)[C@@](O)(O2)C(=O)C(=O)N2CCCC[C@H]2C(=O)O[C@H]([C@H](C)C[C@@H]2CC[C@@H](O)[C@H](OC)C2)CC(=O)[C@H](C)/C=C(\C)[C@@H](O)[C@@H](OC)C(=O)[C@H](C)C[C@H](C)/C=C/C=C/C=C/1C [rapamycin]
Kd (FRB): 26000 nM
rapamycin concentrations at which luciferase expression was detected (FKBP12 and FRB): > 1 µM

lower affinity for CRBN than PT-179 (DDB1•CRBN): 2 fold
Kd (DDB1•CRBN; competition with thalidomide–Cy5, KD estimated from Ki): 1010 nM
SMILES: O=C1CCC(N2C(=O)c3cc(F)c(N4CCOCC4)cc3C2=O)C(=O)N1 (centres unmarked) [PK-1016]
PK-1016-induced degradation of SD40-eGFP (in words) (degron-tagged eGFP; HEK293T cells): poor activity; also recorded: poor degrader

SMILES: O=C1CCC(N2C(=O)c3ccc(N4CCOCC4)cc3C2=O)C(=O)N1 (centres unmarked) [PT-179, PT-179 (thalidomide derivative with a morpholine at the phthalimide 5-position, without the 4-amino group)]
EC50 [1]: 217 nM
EC50 [2]: 3250 nM
EC50 [3]: 1110 nM
EC50 [4]: 225 nM
EC50 [5]: 557 nM

SMILES: N#Cc1ccc(N2CCN(Cc3ccc(COc4cccc5c4CN([C@H]4CCC(=O)NC4=O)C5=O)cc3)CC2)c(F)c1 [mezigdomide, reference compound]
degradation activity on SD40-tagged eGFP (in words) (degron-tagged eGFP; fig. S11E): highly potent degradation activity

Source: article PMC11203266, “Continuous evolution of compact protein degradation tags regulated by selective molecular glues” (Science (New York, N.Y.), 2024)
